Laboratory results published in article PMC10771590, “Pathway crosstalk between the central metabolic and heme biosynthetic pathways in Phanerochaete chrysosporium” (Applied Microbiology and Biotechnology, 2024).

Legend:
[1] = target: T1, rPcCS (Phanerodontia chrysosporium, UniProt Q0EAA7); assay: Heme-derived time-dependent inhibition of PcCS; format: biochemical, Phanerochaete chrysosporium; details: 30-min preincubation of PcCS with hemin at 4 °C; read-out: half-maximal inhibitory concentration (IC50)
T1 sequence (Q0EAA7 1-446): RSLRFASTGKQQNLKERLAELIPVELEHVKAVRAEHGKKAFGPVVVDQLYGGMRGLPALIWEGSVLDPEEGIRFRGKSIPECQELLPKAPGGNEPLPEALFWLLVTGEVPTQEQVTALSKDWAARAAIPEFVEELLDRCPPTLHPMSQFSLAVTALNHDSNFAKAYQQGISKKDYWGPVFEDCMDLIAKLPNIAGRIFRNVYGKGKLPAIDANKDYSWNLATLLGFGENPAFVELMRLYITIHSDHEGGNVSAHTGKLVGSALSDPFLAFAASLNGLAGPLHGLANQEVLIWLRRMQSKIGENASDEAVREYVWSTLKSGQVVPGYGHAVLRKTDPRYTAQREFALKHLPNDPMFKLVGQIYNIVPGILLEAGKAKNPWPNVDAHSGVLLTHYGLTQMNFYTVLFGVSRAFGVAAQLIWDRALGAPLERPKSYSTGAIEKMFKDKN
Description: Therefore, the data were expressed as relative values against the controls. When 5.7 μM hemin was used, citrate formed was determined by HPLC because of spectroscopic interference with the Soret absorption. All experiments were repeated at least three times, and standard deviations were within 5% in each plot.
Fig. 5 Inhibitory effect of hemin on PcCS reaction. […] Reaction mixtures contained 1.5 nM rPcCS, 40 mM Tris-HCl (pH 8.5), and 120 μM DTNB. Fixed substrate was added at 12 μM and variable substrate at 3–12 μM. […] Insets: secondary plots of each slope of Lineweaver–Burk plots against the concentration of hemin for determining inhibition constants.

[2] = test system: P. chrysosporium; assay: Growth of P. chrysosporium with exogenously added hemin; format: cell-based, Phanerochaete chrysosporium
Description: P. chrysosporium (ATCC 34541) was grown from conidial inocula at 37 °C in a stationary culture (20-ml medium in a 200-ml Erlenmeyer flask). The medium (pH 4.5) used in this study was a ligninolytic medium as previously described (Shimizu et al. [2005]; Kirk et al. [1978]), with 1% glucose as carbon source and 1.2 mM ammonium tartrate as nitrogen source.
Taking these observations together, a metabolic “pathway crosstalk” is proposed and summarized in Scheme 1. In P. chrysosporium, heme plays an important role as a prosthetic molecule for many cellular processes, in particular, ligninolytic enzymes. Upon addition of exogenous aromatic compounds, fungal cellular metabolism was dramatically shifted from basic energy metabolism to “defensive” or “productive” metabolism. Glucose uptake and consumption and NADPH and succinyl-CoA production were activated in response to exogenous aromatic compounds. Furthermore, the heme synthetic pathway was activated (Shimizu et al. [2005]). Immediate activation of the heme synthesis against aromatics is crucial for the fungus to produce aromatics-degrading enzymes. On the other hand, free heme is highly toxic to the cell. Thus, metabolic overflow of heme biosynthesis causes highly stressful conditions in the mitochondria. The TCA cycle, including CS, is located in the mitochondrial matrix space (Mcalister-Henn and Small [1997]). […]

[3] = target: T2, PcGAPDH (Phanerodontia chrysosporium, UniProt Q01982); assay: Peroxidative activity of GAPDH–hemin complex (TMB oxidation); format: biochemical, Phanerochaete chrysosporium; details: on binding PcGAPDH in vitro, 1:1 or 1:2 PcGAPDH:hemin, 100 μM H2O2
T2 construct: 6xHis-tag (pET-30) (cleaved yes); made in house; host or cells: E. coli BL21(DE3)pLysS
Description: Peroxidative activity of the PcGAPDH–hemin complex was investigated by using 3, 3′, 5, 5′-tetramethylbenzidine (TMB) as oxidation substrate. Before the assay, 100 μM PcGAPDH was incubated with hemin at 1:1 or 1:2 stoichiometry for 30 min at 4 °C in the dark. Reaction mixtures (1 ml) contained 40 mM Tris–HCl (pH 7.5), 125 μM TMB, 100 μM hydrogen peroxide, and 1 μM PcGAPDH with hemin at 1:1 or 1:2 stoichiometry. As a control, 1 or 2 μM hemin without PcGAPDH was used. The reaction was monitored at 655 nm upon the formation of benzidine cation radical for 1 min.
Fig. 6 Peroxidative activity of GAPDH–hemin complex. Peroxidative activity of GAPDH–hemin complex was investigated by using TMB as an oxidation substrate. Reaction mixtures contained 40 mM Tris/HCl (pH 7.5), 125 μM TMB, 100 μM hydrogen peroxide, 1 μM PcGAPDH with hemin at 1:1 (a) or 1:2 (b) stoichiometry. As a control, 1 (c) or 2 (d) μM hemin without PcGAPDH was used. The reaction was monitored at 655 nm for 1 min

T2 sequence (Q01982 whole entry): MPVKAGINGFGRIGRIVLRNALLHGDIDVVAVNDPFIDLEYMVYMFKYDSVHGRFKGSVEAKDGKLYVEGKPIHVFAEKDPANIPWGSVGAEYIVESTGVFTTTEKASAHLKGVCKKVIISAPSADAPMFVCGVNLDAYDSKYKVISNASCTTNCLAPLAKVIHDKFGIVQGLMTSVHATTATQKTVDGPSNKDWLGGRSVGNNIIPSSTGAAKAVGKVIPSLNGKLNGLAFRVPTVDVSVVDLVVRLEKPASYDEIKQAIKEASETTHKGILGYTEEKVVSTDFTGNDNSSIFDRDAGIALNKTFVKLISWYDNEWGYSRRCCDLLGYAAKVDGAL

## C=CC1=C(C)c2cc3[nH]c(cc4nc(cc5[nH]c(cc1n2)c(C)c5CCC(=O)O)C(CCC(=O)O)=C4C)c(C)c3C=C.[Fe+3] [hemin]
[1]
  IC50: 1000 nM
[2]; 1.0 μM hemin added to culture medium in the dark (data not shown)
  growth of P. chrysosporium: completely shut down
[2]; exogenous addition of hemin at sub-μM concentrations
  growth of P. chrysosporium: completely shut down
[3]
  TMB-oxidizing ability of heme: suppressed
